These compounds were tested against T1, hSK2 channels (Homo sapiens, UniProt P0DP23+Q9H2S1) (assay: Whole-cell patch-clamp recording of SK2 channel current (SC100)). Details: Stimulating Concentration required for increasing the baseline current by 100%; HEK293 cells expressing hSK2; Table 3.
T1 construct: expressed in transfected cells; host or cells: HEK293
Format: cell-based
Description: The biological activity of certain compounds were determined as follows. The ionic current through small-conductance Ca^2+-activated K^+ channels (SK channels, subtype 2) is recorded using the whole-cell configuration of the patch-clamp technique in a classic patch-clamp set-up using HEK293 tissue culture cells expressing hSK2 channels as described in Kasumu et. al., Chemistry & Biology 19, 1340-1353, Oct. 26, 2012.
The SC100 value determined is defined as the Stimulating Concentration required for increasing the baseline current by 100%.

Question: How did the “SC100 uM” value turn out when `Cc1cc(C)n(-c2nc(Nc3ccc(F)cc3F)cc(N3CCN[C@@H](C(N)=O)C3)n2)n1` (single isomer, unassigned) [Compound 125, (−)-4-(6-((2,4-difluorophenyl)amino)-2-(3,5-dimethyl-1H-pyrazol-1-yl)pyrimidin-4-yl)piperazine-2-carboxamide] was run?
Answer: ++ (++ means 200 nM-1000 nM)

Question: `FCc1ccn(-c2nc(Nc3ccc(F)cc3)cc(N3CCOCC3)n2)n1` [Compound 157, 2-(3-(fluoromethyl)-1H-pyrazol-1-yl)-N-(4-fluorophenyl)-6-morpholinopyrimidin-4-amine] was tested. Which “SC100 uM” value did it give?
Answer: ++ (++ means 200 nM-1000 nM)

Question: Which “SC100 uM” value does the source give for `Cc1cc(C)n(-c2nc(Nc3ccc(Cl)cc3)nc3c2ncn3CC#N)n1` [Compound 130, 2-(2-((4-chlorophenyl)amino)-6-(3,5-dimethyl-1H-pyrazol-1-yl)-9H-purin-9-yl)acetonitrile] here?
Answer: ++ (++ means 200 nM-1000 nM)

Question: Which “SC100 uM” value does the source give for `Cc1cc(C)n(-c2nc(Nc3ccc(F)c(F)c3)cc(N3CCOC(CO)C3)n2)n1` (stereo not shown) [Compound 117, (4-(6-((3,4-difluorophenyl)amino)-2-(3,5-dimethyl-1H-pyrazol-1-yl)pyrimidin-4-yl)morpholin-2-yl)methanol] here?
Answer: +++ (+++ means <200 nM)

Question: With `Cc1cc(C)n(-c2nc(Nc3ccc(Cl)cc3)cc(NC(C)C(N)=O)n2)n1` (stereo not shown) [Compound 114, 2-((6-((4-chlorophenyl)amino)-2-(3,5-dimethyl-1H-pyrazol-1-yl)pyrimidin-4-yl)amino)propanamide] as the compound, how does the “SC100 uM” value read?
Answer: ++ (++ means 200 nM-1000 nM)

Question: With `Cc1cc(C)n(-c2cc(N3CCO[C@@H](C(N)=O)C3)nc(Nc3ccc(F)c(F)c3)n2)n1` (single isomer, unassigned) [Compound 132, (−)-4-(2-((3,4-difluorophenyl)amino)-6-(3,5-dimethyl-1H-pyrazol-1-yl)pyrimidin-4-yl)morpholine-2-carboxamide] as the compound, how does the “SC100 uM” value read?
Answer: +++ (+++ means <200 nM)

Question: For `Cc1cc(C)n(-c2cc(N3C[C@@H]4C[C@H]3CN4)nc(Nc3ccc(F)cc3F)n2)n1` (stereo in doubt) [Compound 106, 4-((1S,4S)-2,5-diazabicyclo[2.2.1]heptan-2-yl)-N-(2,4-difluorophenyl)-6-(3,5-dimethyl-1H-pyrazol-1-yl)pyrimidin-2-amine], which “SC100 uM” value is on record?
Answer: ++ (++ means 200 nM-1000 nM)

Question: With `CCn1cnc2c(-n3nc(C)cc3C)nc(Nc3ccc(F)c(F)c3)cc21` [Compound 120, N-(3,4-difluorophenyl)-4-(3,5-dimethyl-1H-pyrazol-1-yl)-1-ethyl-1H-imidazo[4,5-c]pyridin-6-amine] as the compound, how does the “SC100 uM” value read?
Answer: + (+ means >1 uM)

Question: For `Cc1cc(C)n(Cc2cc(Nc3ccc(F)cc3)nc(-n3ccc(CO)n3)c2)n1` [Compound 169, (1-(4-((3,5-dimethyl-1H-pyrazol-1-yl)methyl)-6-((4-fluorophenyl)amino)pyridin-2-yl)-1H-pyrazol-3-yl)methanol], which “SC100 uM” value is on record?
Answer: + (+ means >1 uM)

Question: `FC(F)c1ccn(-c2nc(Nc3ccc(Cl)cc3)cc(N3CCOCC3)n2)n1` [Compound 154, N-(4-chlorophenyl)-2-(3-(difluoromethyl)-1H-pyrazol-1-yl)-6-morpholinopyrimidin-4-amine] was tested. Which “SC100 uM” value did it give?
Answer: ++ (++ means 200 nM-1000 nM)

Question: Which “SC100 uM” value does the source give for `CC(C)(O)c1ccn(-c2nc(Nc3ccc(F)cc3)cc(N3CCOCC3)n2)n1` [Compound 148, 2-(1-(4-((4-fluorophenyl)amino)-6-morpholinopyrimidin-2-yl)-1H-pyrazol-3-yl)propan-2-ol] here?
Answer: + (+ means >1 uM)

Question: With `Cc1cc(C)n(-c2nc(Nc3ccc(Cl)cc3)nc3c2ncn3C(C)C)n1` [Compound 118, N-(4-chlorophenyl)-6-(3,5-dimethyl-1H-pyrazol-1-yl)-9-isopropyl-9H-purin-2-amine] as the compound, how does the “SC100 uM” value read?
Answer: +++ (+++ means <200 nM)

Question: How did the “SC100 uM” value turn out when `FCc1ccn(-c2nc(Nc3ccc(Cl)cc3)cc(N3CCOCC3)n2)n1` [Compound 151, N-(4-chlorophenyl)-2-(3-(fluoromethyl)-1H-pyrazol-1-yl)-6-morpholinopyrimidin-4-amine] was run?
Answer: ++ (++ means 200 nM-1000 nM)

Question: For `CC(F)c1ccn(-c2nc(Nc3ccc(Cl)cc3)cc(N3CC4(COC4)C3)n2)n1` (stereo not shown) [Compound 152, N-(4-chlorophenyl)-2-(3-(1-fluoroethyl)-1H-pyrazol-1-yl)-6-(2-oxa-6-azaspiro[3.3]heptan-6-yl)pyrimidin-4-amine], which “SC100 uM” value is on record?
Answer: +++ (+++ means <200 nM)

Question: For `Cc1cc(Nc2ccc(F)cc2)nc(-n2ccc(CF)n2)n1` [Compound 141, 2-(3-(fluoromethyl)-1H-pyrazol-1-yl)-N-(4-fluorophenyl)-6-methylpyrimidin-4-amine], which “SC100 uM” value is on record?
Answer: ++ (++ means 200 nM-1000 nM)

Question: For `OCc1ccn(-c2nc(Nc3ccc(Cl)cc3)cc(N3CCOCC3)n2)n1` [Compound 149, (1-(4-((4-chlorophenyl)amino)-6-morpholinopyrimidin-2-yl)-1H-pyrazol-3-yl)methanol], which “SC100 uM” value is on record?
Answer: ++ (++ means 200 nM-1000 nM)

Question: `Cc1cc(Nc2ccc(Cl)cc2)nc(-n2ccc(C(C)(C)O)n2)c1` [Compound 145, 2-(1-(6-((4-chlorophenyl)amino)-4-methylpyridin-2-yl)-1H-pyrazol-3-yl)propan-2-ol] was tested. Which “SC100 uM” value did it give?
Answer: ++ (++ means 200 nM-1000 nM)

Question: `CC(=O)NCc1cc(Nc2ccc(Cl)cc2)nc(-n2ccc(C(F)F)n2)c1` [Compound 165, N-((2-((4-chlorophenyl)amino)-6-(3-(difluoromethyl)-1H-pyrazol-1-yl)pyridin-4-yl)methyl)acetamide] was tested. Which “SC100 uM” value did it give?
Answer: ++ (++ means 200 nM-1000 nM)

Question: How did the “SC100 uM” value turn out when `Cc1cc(Nc2ccc(F)cc2)nc(-n2ccc(C(C)(C)O)n2)n1` [Compound 138, 2-(1-(4-((4-fluorophenyl)amino)-6-methylpyrimidin-2-yl)-1H-pyrazol-3-yl)propan-2-ol] was run?
Answer: + (+ means >1 uM)

Question: `Cc1cc(C)n(-c2nc(Nc3ccc(Cl)cc3)nc3c2ncn3CCO)n1` [Compound 135, 2-(2-((4-chlorophenyl)amino)-6-(3,5-dimethyl-1H-pyrazol-1-yl)-9H-purin-9-yl)ethan-1-ol] was tested. Which “SC100 uM” value did it give?
Answer: ++ (++ means 200 nM-1000 nM)

Question: With `CC(=O)NCc1cc(Nc2ccc(F)cc2)nc(-n2cc(C)c(C(C)O)n2)c1` (stereo not shown) [Compound 167, N-((2-((4-fluorophenyl)amino)-6-(3-(1-hydroxyethyl)-4-methyl-1H-pyrazol-1-yl)pyridin-4-yl)methyl)acetamide] as the compound, how does the “SC100 uM” value read?
Answer: ++ (++ means 200 nM-1000 nM)

Question: For `Cc1cc(C)n(-c2cc(N3CCO[C@H](C(N)=O)C3)nc(Nc3ccc(F)c(F)c3)n2)n1` (single isomer, unassigned) [Compound 131, (+)-4-(2-((3,4-difluorophenyl)amino)-6-(3,5-dimethyl-1H-pyrazol-1-yl)pyrimidin-4-yl)morpholine-2-carboxamide], which “SC100 uM” value is on record?
Answer: +++ (+++ means <200 nM)

Same assay, conditions: Stimulating Concentration required for increasing the baseline current by 100%; HEK293 cells expressing hSK2; Table 4

Question: Which “SC100 (μM)” value does the source give for `Cc1ccn(-c2nc(Nc3cccc(C(F)(F)F)c3)cc(C(C)O)n2)n1` (stereo not shown) [IN10876-033-P1] here?
Answer: ++ (++ means 200 nM-1000 nM)

Question: With `Fc1ccc(Nc2ccnc(-n3ccc(C4CC4)n3)n2)cc1` [IN11166-018-P1, 2-(3-cyclopropyl-1H-pyrazol-1-yl)-N-(4-fluorophenyl) pyrimidin-4-amine] as the compound, how does the “SC100 (μM)” value read?
Answer: + (+ means >1 uM)

Question: For `COc1cc(Nc2ccc(F)cc2)nc(-c2cccc(C)n2)n1` [NSSy6908], which “SC100 (μM)” value is on record?
Answer: + (+ means >1 uM)

— patent US20170355708A1, “POTASSIUM CHANNEL MODULATORS” (Cadent Therapeutics, Inc., priority 2016, published 2017)
